Test results published in patent publication US20100048594A1, “USE OF CYTOHESIN INHIBITORS FOR CHEMICALLY INDUCING LONGEVITY” (RHEINISCHE FRIEDRICH-WILHELMS UNIVERSITAT, priority 2006, published 2010).

Columns and labels:
[1] = system: 4E-BP; experiment: Expression of insulin-repressed gene 4E-BP in fed Drosophila larvae (real-time PCR); assay type: in vivo; conditions: 10 mg compound per 1 g brewer's yeast, 3 days
Experimental: (§1) Three groups of 100 Drosophila larvae received 10 mg of the compound according to formula (9) mixed with 1 g autoclaved and pulverized brewer's yeast (Brewferm), while three control groups of 100 animals each received the uncut brewer's yeast. This food was administered on water-impregnated filters (Macherey-Nagel) for 3 days at 25° C.
(§2) In each case, more than 10 animals of the group were washed thoroughly with water, placed in lysate buffer (NucleoSpin RNA II kit, Macherey & Nagel), and homogenized for 1 minute at maximum speed (Ultra-Turrax T25basic). Total RNA was isolated using the NucleoSpin RNA II Kit (Macherey & Nagel, including DNase I-treatment on the column).
(§3) cDNA was produced from each 500 ng total RNA using the QuantiTect Reverse Transcription Kit (Qiagen), according to the manufacturer's instructions, including DNase I treatment. PCR was performed in batches with a total volume of 25 μl (iQ5 Real Time PCR Detection System, BioRad). The batches contained 1 μl of the cDNA batch, in each case 200 nM and 3′- and 5′-primer (Metabion) 12.5 μl 2×iQ5 SYBR Green Supermix (BioRad).
(§4) The PCR program that was used comprised 40 cycles with the following steps: 15 seconds denaturing at 95° C., 30 seconds annealing at 59° C. and 30 seconds extension at 72° C. Evaluation was carried out using the iQ5 Optical System software (Version 1.1.1442.OCR, BioRad). […]

[2] = system: 1nR (insulin receptor); experiment: Expression of insulin-repressed gene 1nR (insulin receptor) in fed Drosophila larvae (real-time PCR); assay type: in vivo; conditions: 10 mg compound per 1 g brewer's yeast, 3 days
Experimental: as §1, §2, §3, §4

[3] = system: IGFBP1 (insulin-like growth factor binding protein); experiment: Transcription of IGFBP1 in insulin-treated HepG2 liver cells (quantitative PCR); assay type: cell-based, human
Experimental: Human hepG2 cells (ECACC) were cultivated in EMEM medium (Cambrex) with the addition of 10% fetal calf serum. 10^5 cells were seeded in 2 ml medium in 6 well plates and were cultivated at 37° C. in a moist atmosphere with 5% CO2 for 1 to 3 days, before being used for experiments.
For human HepG2 cells (ECACC), serum was removed from the medium for 24 hours, the cells were incubated for an additional 12 hours with concentrations of 1.5625 μM, 3.125 μM, 6.25 μM, 12.5 μM, 25 μM or 50 μM of the compound according to formula (9) and with 10 nM insulin. Control cells received DMSO in a concentration corresponding to that of the treated cells.
Total RNA was isolated using the Absolutely RNA Kit (Stratagene), and the cDNA was produced by means of the reverse transcription of 2 μg RNA using the High Capacity cDNA Archive Kit (Applied Biosystems), according to the manufacturer's instructions. Quantitative PCR was performed in 10 μl batches in an iQ5 Cycler (BioRad) by means of the TaqMan Gene Expression Assay (Applied Biosystems) using gene-specific primer (Applied Biosystems), according to the manufacturer's instructions. The data were normalized to the β2-microglobulin expression.

[4] = system: genes that are controlled via the PI3K-dependent pathway of the insulin receptor signaling pathway; experiment: Expression of insulin-regulated gluconeogenic and glycolytic genes in mouse liver after feeding (quantitative PCR); assay type: in vivo, C57BL/6 mice; conditions: food with 0.9 μmol/g compound for 3 days, 40 μg insulin i.p.
From the text: C57BL/6 mice (Charles River Laboratories) that had been kept in a pathogen-free animal facility, maintaining a 12-hour light/dark cycle, were used. The animals received standard mouse food (19% protein, 3.3% fat, 41.3% carbohydrates; ssniff Spezialdiäten GmbH) ad libitum. Male animals between the ages of 8 and 12 weeks were used.
A group of 6 C57BL/6 mice received standard mouse food mixed with 0.9 μmol/g of the compound according to formula (9) for a period of 3 days, while a control group of 6 animals received standard mouse food. The animals were then injected intraperitoneally with 100 μl normal saline solution (control group) or saline solution with 40 μg recombinant human insulin (Sigma). […]
Total RNA from 15 mg mouse liver in each case was isolated using the Absolutely RNA Kit (Stratagene) and the cDNA was produced via the reverse transcription of 2 μg RNA using the High Capacity cDNA Archive Kit (Applied Biosystems), according to the manufacturer's instructions. Quantitative PCR was performed in 10 μl batches in an iQ5-Cycler (BioRad) by means of the TaqMan Gene Expression Assay (Applied Biosystems) using primers (Applied Biosystems), against lgfbp1, Fbp2, Pck1, Pck2, G6 pc, Hk2, Pklr, Gck, Gckr, according to the manufacturer's instructions. […]

[5] = system: FoxO1A; experiment: Insulin-dependent phosphorylation of FoxO1A in HepG2 cells; assay type: cell-based, human; conditions: HepG2 cells, 5, 10, 15 μM compound, 100 nM insulin; based upon concentration

## COc1nc(-c2ccc3c(c2)OCO3)n(-c2ccc(NC(=O)CSc3ccccc3)cc2)n1 [Compound (9)]
[1]
  expression of insulin-repressed gene 4E-BP: more than four times
[2]
  expression of insulin-repressed gene 1nR (insulin receptor): more than double
[3]; 12.5 μM compound, 10 nM insulin
  IGFBP1 expression relative to untreated cells: nearly the value of the untreated cells
[3]; 12 hours with compound and 10 nM insulin
  block of the insulin-dependent inhibition of the transcription of IGFBP1: nearly completely block
[4]
  expression of the glycolytic gene induced by insulin: decreased to a statistically significant degree
  expression of the studied gluconeogenic gene, suppressed by insulin: increased
[5]
  insulin-dependent phosphorylation of FoxO1A: inhibited
